Experimental data reported in patent EP2717057A1, “Morphine-6-glucuronide derivatives, immunogens and immunoassay” (Cisbio Bioassays, priority 2012, dated 2014).

Biological target: rabbit anti-M6G polyclonal antibody
Experiment: Cross-reactivity of the competitive M6G-ELISA (M6G-HRP tracer, biotinylated antibody)
Assay type: binding
Conditions: for Kd: approximate, calculated from Figure 1, competing compound diluted in NBCS at 1, 10, 100 or 1000 nM, one site competition model, read-out: affinity constant K; for K relative to M6G (X as high as M6G): ratio of the compound's K to the K of M6G
Protocol: The rabbit anti-M6G polyclonal antibody was biotinylated for the ELISA assay. After dialysis in buffer carbonate 100 mM pH 9, biotin-NHS dissolved in DMF was added to the antibody. After stirring for 30 min, the free biotin was removed by dialysis in PBS 11 mM pH 7.2. Aliquots of labeled antibody were frozen and stored at -20°C. Then, the biotinylated antibody was diluted at ELISA working concentration determined at 0.25µg.mL^-1 in PBS 11 mM pH 7.2 + 1% BSA, aliquoted and stored at -20°C.
96-well microplates were coated with 200 µL/well of a 10 µg.mL^-1 BSA-biotin solution in PBS and incubated for 24 h at room temperature. Then after aspiration 200 µL/well of 10 µg.mL^-1 of avidin solution in PBS were distributed and incubated for 24 h at room temperature. After washing with NaCl, Tween® 0.005%, 200 µL/well of saturation solution was added (PBS + 2% Sorbitol + 0.5% Glycine + 0.1% BSA + 0.065% NaN3) and incubated for 24 h at 4°C. After an aspiration, the microplates were dried at 20°C in a ventilated room for 12 h, packed with a dessicant and stored at 4°C.
A competitive assay format was used for the M6G-ELISA. 100 µL of biotinylated antibody were added and incubated for 2 h at room temperature under 400 rpm stirring. After incubation, the wells were emptied and 3 wash cycles with H2O + 0.05% Tween® were applied. 50 µL of calibrators, controls and samples were added in duplicate. If necessary, samples were prediluted in dilution buffer (PBS + 0.1% BSA), then 50 µL of M6G-HRP conjugate was distributed in all the wells and incubated for 2h at room temperature, under 400rpm stirring. After a final washing step, 100 µL of HRP substrate (TMB) were added, and incubated for 10 min at room temperature, under 400rpm stirring. The chromogenic reaction was stopped with 100 µL H2SO4 1 N, and the absorbance of each sample was determined at 450 nm and 620 nm (reference wavelength). The results were analyzed using GraphPad Prism Software, model one site competition.
The cross-reactivity of the assay described in example 5 with several compounds that are structurally close to M6G was evaluated. For this purpose, the assay was performed with 50 µL of samples constituted of competing compounds diluted in NBCS at the concentrations of: 1 nM, 10 nM, 100 nM or 1000 nM.

Structure (SMILES) | Kd [nM] | K relative to M6G (X as high as M6G)
COc1ccc2c3c1O[C@H]1[C@@H](O)C=C[C@H]4[C@@H](C2)NCC[C@@]341 [norcodeine, Norcodeine] | > 1000 | –
COc1ccc2c3c1O[C@H]1[C@@H](O)C=C[C@H]4[C@@H](C2)N(C)CC[C@@]341 [codeine, Codeine] | 220 | 35 X
CN1CC[C@]23c4c5ccc(O[C@@H]6O[C@H](C(=O)O)[C@@H](O)[C@H](O)[C@H]6O)c4O[C@H]2[C@@H](O[C@@H]2O[C@H](C(=O)O)[C@@H](O)[C@H](O)[C@H]2O)C=C[C@H]3[C@H]1C5 [M3,6G, Morphine-3-6-diglucuronide] | 3.4 | –
Oc1ccc2c3c1O[C@H]1[C@@H](O)C=C[C@H]4[C@@H](C2)NCC[C@@]341 [normorphine, Normorphine] | > 1000 | –
CN1CC[C@]23c4c5ccc(O)c4O[C@H]2[C@@H](O[C@@H]2O[C@H](C(=O)O)[C@@H](O)[C@H](O)[C@H]2O)C=C[C@H]3[C@H]1C5 [M6G, Morphine-6-glucuronide] | 5.9 | –
CN1CC[C@]23c4c5ccc(O[C@@H]6O[C@H](C(=O)O)[C@@H](O)[C@H](O)[C@H]6O)c4O[C@H]2[C@@H](O)C=C[C@H]3[C@H]1C5 [M3G, Morphine-3-glucuronide] | 670 | more than 100 X
